Structures can show the parent of a compound that is named as a salt. Where two headings read alike, the source gives them in different places.
Target: T1, BACE1 enzyme (soluble, truncated BACE enzyme, BACE1deltaTM96His) (Homo sapiens, UniProt P56817)
T1 construct: soluble, truncated BACE enzyme (BACE1deltaTM96His); His; made in house
Test: BACE1 Fluorescent Polarization (FP) Assay
Assay type: biochemical
Settings: geometric mean of 2-4 IC50 determinations unless footnoted (^2: 5-6 determinations; ^4: single determination)
Description: BACE1 Fluorescent Polarization (FP) Assay
The fluorescently tagged synthetic substrate, Biotin-GLTNIKTEEISEISŶEVEFR-C[oregon green]KK-OH can be efficiently cleaved by the beta-secretase enzyme and is therefore useful to assay beta-secretase activity in the presence or absence of inhibitory compounds. The his tagged BACE1 enzyme was affinity purified material from conditioned media of CHO-K1 cells that had been transfected to express soluble, truncated BACE enzyme (BACE1deltaTM96His). Compounds were incubated in a ½ log dose response (from a top concentration of 100 μM) with BACE1 enzyme (0.1 nM final) and the biotinylated fluorescent peptide substrate (150 nM final) in assay buffer containing 100 mM sodium acetate, pH 4.5 (brought to pH with acetic acid), and 0.001% Tween-20. Total reaction volumes of 30 μL were carried out in 384-well black plates (Thermo Scientific 4318). Plates were covered and incubated for 3 hours at 37° C. The reactions were then stopped by addition of 30 μL of 1.5 μM Streptavidin (Pierce, 21125). After a 10 minute incubation at room temperature, plates were read on a PerkinElmer Envision for fluorescence polarization (Ex485 nm/Em530 nm). The activity of the beta-secretase enzyme is detected by changes in the fluorescence polarization (Δ mP) that occur when the substrate is cleaved by the enzyme.

[1] = 8-point curve, read-out: BACE activity, 8-point curve, IC50
[2] = 11-point curve, read-out: BACE activity, 11-point curve, IC50

T1 sequence (P56817 46-457): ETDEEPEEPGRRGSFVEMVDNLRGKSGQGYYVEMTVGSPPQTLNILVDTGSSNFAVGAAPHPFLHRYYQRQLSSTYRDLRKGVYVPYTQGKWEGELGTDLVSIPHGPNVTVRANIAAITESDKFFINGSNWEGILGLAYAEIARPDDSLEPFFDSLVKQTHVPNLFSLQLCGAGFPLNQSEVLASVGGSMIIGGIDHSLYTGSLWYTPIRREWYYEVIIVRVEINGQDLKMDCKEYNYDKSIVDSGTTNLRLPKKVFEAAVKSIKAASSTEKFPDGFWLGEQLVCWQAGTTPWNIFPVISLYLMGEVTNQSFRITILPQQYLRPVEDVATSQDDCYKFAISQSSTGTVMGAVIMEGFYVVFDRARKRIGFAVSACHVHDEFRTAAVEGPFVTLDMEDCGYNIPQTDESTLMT

IC50 [1] [nM]	IC50 [2] [nM]	Compound
51.9	353	C[C@H]1C[C@@]2(C=CS(=O)(=O)N2c2cccc(F)c2)CCN1Cc1scnc1CC1CC1 [Example 24, (5R,7S)-8-{[4-(cyclopropylmethyl)-1,3-thiazol-5-yl]methyl}-1-(3-fluorophenyl)-7-methyl-2-thia-1,8-diazaspiro[4.5]dec-3-ene 2,2-dioxide, hydrochloride salt]
14.3	28.4	Cc1ccccc1-c1cc(CN2CC[C@]3(C=CS(=O)(=O)N3c3cccc(F)c3)C[C@@H]2C)ccc1O [Example 25, 5-{[(5R,7S)-1-(3-fluorophenyl)-7-methyl-2,2-dioxido-2-thia-1,8-diazaspiro[4.5]dec-3-en-8-yl]methyl}-2′-methylbiphenyl-2-ol, hydrochloride salt]
116	269	CCOc1cc(CN2CC[C@]3(C=CS(=O)(=O)N3c3cccc(F)c3)C[C@@H]2C)ccc1O [Example 27, 2-ethoxy-4-{[(5R,7S)-1-(3-fluorophenyl)-7-methyl-2,2-dioxido-2-thia-1,8-diazaspiro[4.5]dec-3-en-8-yl]methyl}phenol]
521	2160	CC(C)Oc1cccc(CN2CC[C@]3(CCS(=O)(=O)N3c3cccc(F)c3)C[C@@H]2C)c1 [Example 28, (5R,7S)-1-(3-fluorophenyl)-8-(3-isopropoxybenzyl)-7-methyl-2-thia-1,8-diazaspiro[4.5]decane 2,2-dioxide]
–	4290	C[C@H]1C[C@]2(CCN1Cc1ncoc1-c1cccnc1)CCS(=O)(=O)N2c1cccc(F)c1 [Example 32, (5R,7S)-1-(3-fluorophenyl)-7-methyl-8-[(5-pyridin-3-yl-1,3-oxazol-4-yl)methyl]-2-thia-1,8-diazaspiro[4.5]decane 2,2-dioxide, hydrochloride salt]
–	3030	C[C@H]1C[C@]2(CCN1Cc1ncoc1-c1cncnc1)CCS(=O)(=O)N2c1cccc(F)c1 [Example 33, (5R,7S)-1-(3-fluorophenyl)-7-methyl-8-[(5-pyrimidin-5-yl-1,3-oxazol-4-yl)methyl]-2-thia-1,8-diazaspiro[4.5]decane 2,2-dioxide, hydrochloride salt]
–	5890	C[C@H]1C[C@@]2(C=CS(=O)(=O)N2c2cccc(F)c2)CCN1Cc1ncoc1-c1cccs1 [Example 34, (5R,7S)-1-(3-fluorophenyl)-7-methyl-8-{[5-(2-thienyl)-1,3-oxazol-4-yl]methyl}-2-thia-1,8-diazaspiro[4.5]dec-3-ene 2,2-dioxide, hydrochloride salt]
2180	3000	C[C@H]1C[C@@]2(C=CS(=O)(=O)N2c2cccc(F)c2)CCN1Cc1ncoc1-c1cncs1 [Example 35, (5R,7S)-1-(3-fluorophenyl)-7-methyl-8-{[5-(1,3-thiazol-5-yl}-1,3-oxazol-4-yl]methyl}-2-thia-1,8-diazaspiro[4.5]dec-3-ene 2,2-dioxide]
2510	6290	Cc1ncsc1-c1ocnc1CN1CC[C@]2(C=CS(=O)(=O)N2c2cccc(F)c2)C[C@@H]1C [Example 36, (5R,7S)-1-(3-fluorophenyl)-7-methyl-8-{[5-(4-methyl-1,3-thiazol-5-yl)-1,3-oxazol-4-yl]methyl}-2-thia-1,8-diazaspiro[4.5]dec-3-ene 2,2-dioxide]
1820	2840	Cc1ccsc1-c1ocnc1CN1CC[C@]2(C=CS(=O)(=O)N2c2cccc(F)c2)C[C@@H]1C [Example 37, (5R,7S)-1-(3-fluorophenyl)-7-methyl-8-{[5-(3-methyl-2-thienyl)-1,3-oxazol-4-yl]methyl}-2-thia-1,8-diazaspiro[4.5]dec-3-ene 2,2-dioxide]
752	2780	Cc1cncc(-c2ocnc2CN2CC[C@]3(C=CS(=O)(=O)N3c3cccc(F)c3)C[C@@H]2C)c1 [Example 38, (5R,7S)-1-(3-fluorophenyl)-7-methyl-8-{[5-(5-methylpyridin-3-yl)-1,3-oxazol-4-yl]methyl}-2-thia-1,8-diazaspiro[4.5]dec-3-ene 2,2-dioxide]
79.5	414	Cc1ccncc1-c1cccc(CN2CC[C@]3(C=CS(=O)(=O)N3c3cccc(F)c3)C[C@@H]2C)c1 [Example 39, (5R,7S)-1-(3-fluorophenyl)-7-methyl-8-[3-(4-methylpyridin-3-yl)benzyl]-2-thia-1,8-diazaspiro[4.5]dec-3-ene 2,2-dioxide, hydrochloride salt]
1380	2380	C[C@H]1C[C@@]2(C=CS(=O)(=O)N2c2cccc(F)c2)CCN1Cc1ncoc1-c1cncc(F)c1 [Example 40, (5R,7S)-1-(3-fluorophenyl)-8-{[5-(5-fluoropyridin-3-yl)-1,3-oxazol-4-yl]methyl}-7-methyl-2-thia-1,8-diazaspiro[4.5]dec-3-ene 2,2-dioxide, hydrochloride salt]
703	2380	C[C@H]1C[C@@]2(C=CS(=O)(=O)N2c2cccc(F)c2)CCN1Cc1ccc2[nH]ccc2c1 [Example 41, (5R,7S)-1-(3-fluorophenyl)-8-(1H-indol-5-ylmethyl)-7-methyl-2-thia-1,8-diazaspiro[4.5]dec-3-ene 2,2-dioxide]
975	8250	C[C@H]1C[C@@]2(C=CS(=O)(=O)N2c2cccc(F)c2)CCN1Cc1scnc1-c1cncnc1 [Example 43, (5R,7S)-1-(3-fluorophenyl)-7-methyl-8-[(4-pyrimidin-5-yl-1,3-thiazol-5-yl)methyl]-2-thia-1,8-diazaspiro[4.5]dec-3-ene 2,2-dioxide]
3070	8460	C[C@H]1C[C@@]2(C=CS(=O)(=O)N2c2cccc(F)c2)CCN1Cc1scnc1-c1cncc(F)c1 [Example 44, (5R,7S)-1-(3-fluorophenyl)-8-{[4-(5-fluoropyridin-3-yl)-1,3-thiazol-5-yl]methyl}-7-methyl-2-thia-1,8-diazaspiro[4.5]dec-3-ene 2,2-dioxide, hydrochloride salt]
5600	15300	Cc1ccsc1-c1ncsc1CN1CC[C@]2(C=CS(=O)(=O)N2c2cccc(F)c2)C[C@@H]1C [Example 45, (5R,7S)-1-(3-fluorophenyl)-7-methyl-8-{[4-(3-methyl-2-thienyl)-1,3-thiazol-5-yl]methyl}-2-thia-1,8-diazaspiro[4.5]dec-3-ene 2,2-dioxide]
5600	9030	C[C@H]1C[C@@]2(C=CS(=O)(=O)N2c2cccc(F)c2)CCN1Cc1scnc1-c1cccnc1 [Example 48, (5R,7S)-1-(3-fluorophenyl)-7-methyl-8-[(4-pyridin-3-yl-1,3-thiazol-5-yl)methyl]-2-thia-1,8-diazaspiro[4.5]dec-3-ene 2,2-dioxide]
6720	15200	Cc1cncc(-c2ncsc2CN2CC[C@]3(C=CS(=O)(=O)N3c3cccc(F)c3)C[C@@H]2C)c1 [Example 49, (5R,7S)-1-(3-fluorophenyl)-7-methyl-8-{[4-(5-methylpyridin-3-yl)-1,3-thiazol-5-yl]methyl}-2-thia-1,8-diazaspiro[4.5]dec-3-ene 2,2-dioxide, hydrochloride salt]
7180	25600	Cc1ccncc1-c1ncsc1CN1CC[C@]2(C=CS(=O)(=O)N2c2cccc(F)c2)C[C@@H]1C [Example 50, (5R,7S)-1-(3-fluorophenyl)-7-methyl-8-{[4-(4-methylpyridin-3-yl)-1,3-thiazol-5-yl]methyl}-2-thia-1,8-diazaspiro[4.5]dec-3-ene 2,2-dioxide, hydrochloride salt]
2080	5640	C[C@H]1C[C@]2(CCN1Cc1ccc3[nH]ccc3c1)CCS(=O)(=O)N2c1cccc(F)c1 [Example 51, (5R,7S)-1-(3-fluorophenyl)-8-(1H-indol-5-ylmethyl)-7-methyl-2-thia-1,8-diazaspiro[4.5]decane 2,2-dioxide]
40.5	–	Cc1ccccc1-c1cccc(CN2CC[C@]3(CCS(=O)(=O)N3c3cccc(F)c3)C[C@@H]2C)c1 [Example 52, (5R,7S)-1-(3-fluorophenyl)-7-methyl-8-[(2′-methylbiphenyl-3-yl)methyl]-2-thia-1,8-diazaspiro[4.5]decane 2,2-dioxide, formate salt]

Compound	IC50 [1] [nM]	IC50 [2] [nM]
C[C@H]1C[C@]2(CCN1Cc1ccc(O)c(Cl)c1)CCS(=O)(=O)N2c1cccc(F)c1 [Example 29, 2-chloro-4-{[(5R7S)-1-(3-fluorophenyl)-7-methyl-2,2-dioxido-2-thia-1,8-diazaspiro[4.5]dec-8-yl]methyl}phenol, hydrochloride salt]	332	1530
COc1ccc2[nH]c(CN3CC[C@]4(C=CS(=O)(=O)N4c4cccc(F)c4)C[C@@H]3C)cc2c1 [Example 42, (5R,7S)-1-(3-fluorophenyl)-8-[(5-methoxy-1H-indol-2-yl)methyl]-7-methy1-2-thia-1,8-diazaspiro[4.5]dec-3-ene 2,2-dioxide]	117	2220

Reference: patent publication US20130150376A1, “Novel Sultam Compounds” (PFIZER INC., priority 2010, published 2013)
